In PubChem BioAssay (NCI):
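Assay format: 96-well plates, 48-hour exposure. GI50 = concentration required for 50% inhibition of growth. TGI is the concentration that stops growth completely.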

Tests used:
Assay in all cases: growth of human tumour cells (NCI), 48 h
[1] = test system: ACHN renal
[2] = test system: OVCAR-4 ovarian
[3] = test system: HOP-62 NSCLC
[4] = test system: HCT-116 colon
[5] = test system: U251 CNS
[6] = test system: SF-295 CNS
[7] = test system: A549 NSCLC
[8] = test system: MCF7 breast
[9] = test system: MDA-MB-231 breast
[10] = test system: HL-60(TB) leukemia
[11] = test system: SR leukemia
[12] = test system: SK-MEL-2 melanoma
[13] = test system: 786-0 renal
[14] = test system: NCI/ADR-RES ovarian
[15] = test system: UACC-62 melanoma
[16] = test system: SN12C renal
[17] = test system: LOX IMVI melanoma
[18] = test system: T-47D breast
[19] = test system: NCI-H460 lung
[20] = test system: HCC-2998 colon
[21] = test system: NCI-H23 lung
[22] = test system: SNB-75 CNS
[23] = test system: IGROV1 ovarian
[24] = test system: BT-549 breast
[25] = test system: M14 melanoma
[26] = test system: UO-31 renal
[27] = test system: TK-10 renal
[28] = test system: HS 578T breast
[29] = test system: CCRF-CEM leukemia
[30] = test system: NCI-H226 lung
[31] = test system: OVCAR-5 ovarian
[32] = test system: HCT-15 colon
[33] = test system: EKVX NSCLC
[34] = test system: COLO 205 colon
[35] = test system: K-562 leukemia
[36] = test system: KM12 colon
[37] = test system: UACC-257 melanoma
[38] = test system: SK-MEL-28 melanoma
[39] = test system: HOP-92 NSCLC
[40] = test system: MOLT-4 leukemia
[41] = test system: CAKI-1 renal
[42] = test system: DU-145 prostate
[43] = test system: A498 renal
[44] = test system: PC-3 prostate
[45] = test system: RPMI-8226 leukemia
[46] = test system: SK-OV-3 ovarian
[47] = test system: HT29 colon
[48] = test system: SW-620 colon
[49] = test system: SF-539 CNS
[50] = test system: MALME-3M melanoma
[51] = test system: RXF 393 renal
[52] = test system: OVCAR-8 ovarian
[53] = test system: NCI-H522 lung
[54] = test system: SK-MEL-5 melanoma
[55] = test system: MDA-MB-435
[56] = test system: SF-268 CNS
[57] = test system: SNB-19 CNS
[58] = test system: OVCAR-3 ovarian

OCc1cn(Cc2ccc(Cl)cc2)c2ccccc12
GI50 [1]: 3.57 µM | TGI [1]: 34.2 µM | GI50 [2]: 0.281 µM | TGI [2]: 7.69 µM | GI50 [3]: 0.84 µM | TGI [3]: 21.7 µM | GI50 [4]: 0.0393 µM | TGI [4]: 12 µM | GI50 [5]: 2.62 µM | TGI [5]: 22.6 µM | GI50 [6]: 1.62 µM | TGI [6]: 32.9 µM | GI50 [7]: 2.64 µM | TGI [7]: 40.8 µM | GI50 [8]: 0.105 µM | TGI [8]: 9.02 µM | GI50 [9]: 6.02 µM | TGI [9]: 25.6 µM | GI50 [10]: 3.9 µM | TGI [10]: 21.4 µM | GI50 [11]: 15.9 µM | TGI [11]: 71.7 µM | GI50 [12]: 0.986 µM | TGI [12]: 6.72 µM | GI50 [13]: 2.51 µM | TGI [13]: 21.2 µM | GI50 [14]: 8.41 µM | TGI [14]: 30.8 µM | GI50 [15]: 0.0565 µM | TGI [15]: 0.601 µM | GI50 [16]: 4.66 µM | TGI [16]: 21.6 µM | GI50 [17]: 4.26 µM | TGI [17]: 16.1 µM | GI50 [18]: 0.0386 µM | TGI [18]: 0.55 µM | GI50 [19]: 0.124 µM | TGI [19]: 18.5 µM | GI50 [20]: 4.09 µM | TGI [20]: 20.3 µM | GI50 [21]: 3.85 µM | TGI [21]: 21.1 µM | GI50 [22]: 4.52 µM | TGI [22]: 19.9 µM | GI50 [23]: < 0.0227 µM | TGI [23]: 0.709 µM | GI50 [24]: 3.65 µM | TGI [24]: 17.5 µM | GI50 [25]: 5.95 µM | TGI [25]: 22.1 µM | GI50 [26]: 1.66 µM | TGI [26]: 13 µM | GI50 [27]: < 0.0115 µM | TGI [27]: 0.195 µM | GI50 [28]: 4.76 µM | TGI [28]: 25.6 µM | GI50 [29]: 2.2 µM | TGI [29]: 16.8 µM | GI50 [30]: < 0.01 µM | TGI [30]: 0.106 µM | GI50 [31]: < 0.01 µM | TGI [31]: 0.613 µM | GI50 [32]: 3.44 µM | TGI [32]: 28.5 µM | GI50 [33]: 21.1 µM | TGI [33]: 60 µM | GI50 [34]: 0.615 µM | TGI [34]: 6.89 µM | GI50 [35]: 1.61 µM | TGI [35]: 25.4 µM | GI50 [36]: 16.9 µM | TGI [36]: 38.1 µM | GI50 [37]: 0.22 µM | TGI [37]: 0.517 µM | GI50 [38]: 15.1 µM | TGI [38]: 44 µM | GI50 [39]: 3.03 µM | TGI [39]: 19.7 µM | GI50 [40]: 19.6 µM | TGI [40]: 54 µM | TGI [41]: 2.15 µM | GI50 [42]: 8.11 µM | TGI [42]: 31.8 µM | GI50 [43]: 0.0115 µM | TGI [43]: 0.0323 µM | GI50 [44]: 15 µM | TGI [44]: 47.1 µM | GI50 [45]: 0.636 µM | TGI [45]: 5.23 µM | GI50 [46]: 2.88 µM | TGI [46]: 33.2 µM | GI50 [47]: 1.35 µM | TGI [47]: 17.8 µM | GI50 [48]: 0.811 µM | TGI [48]: 22.9 µM | GI50 [49]: 11.5 µM | TGI [49]: 27.8 µM | GI50 [50]: 8.68 µM | TGI [50]: 30.5 µM | GI50 [51]: 0.424 µM | TGI [51]: 4.44 µM | GI50 [52]: 4.36 µM | TGI [52]: 40 µM | GI50 [53]: 3.21 µM | TGI [53]: 14.8 µM | GI50 [54]: 4.59 µM | TGI [54]: 18.6 µM | GI50 [55]: 17.1 µM | TGI [55]: 43.9 µM | GI50 [56]: 12.3 µM | TGI [56]: 36.7 µM | GI50 [57]: 15.8 µM | TGI [57]: 64.5 µM | GI50 [58]: 0.495 µM | TGI [58]: 8.23 µM
